What was measured:
[1] = tested on: A549 tumors; assay: Uptake of Alexa 555-labeled siRNA into A549 tumor cells in vivo after intratumoral injection; parameters: species or system mouse; conditions: 25 μg i.t.
Protocol: An Alexa 555-labeled control siRNA was used to determine the cellular uptake of siRNA in tumor tissues when given via intratumoral (i.t.) injection. A549 cells (6−8×10^6 cells) were s.c. inoculated into CD-1 nude mice. Once the A549 tumors reached a size of approximately 100 mm^3, mice were divided into two groups of four mice each. The Alexa 555-labeled Stealth™ siRNA (SEQ ID NO: 5111 (DNA), and SEQ ID NO: 5300 (RNA); Invitrogen Corp.) at a dose of 25 μg (in 50 μl) was injected into tumors of one group. 50 μl PBS was injected into tumors of a negative control group. Tumors were harvested at 6 and 24 h after injection and placed in a labeled cryomold (Tissue-TeK® Crymold®; ProSciTech, Thuringowa, Queensland, Australia) and covered with OCT tissue freezing medium (O.C.T. Compound, ProSciTech). The mold was gently submerged in liquid nitrogen for approximately one minute until OCT turned white and opaque. Tissues were stored at minus 80° C. until sections were cut. Tissues were allowed to reach −20° C. before processing in a Leica Cryostat (Leica Microsystems, Inc., Bannockburn Ill.) at 10 microns. Sections were picked up on Super Frost Plus slides (Esco, Biolab Scientific, New Zealand). After air-drying, sections were fixed in freshly prepared 2% paraformaldehyde solution for 2 minutes at room temperature and then rinsed in PBS to remove the fixative. The slides were mounted in Prolong Gold antifade reagent with DAPI (Molecular Probes®, Invitrogen Corp.), covered with cover slips and sealed to the slides with clear nail polish. The slides were stored at 4° C. in the dark. Fluorescence in the tumor samples was visualized using a Zeiss Axioskop Microscope (Carl Zeiss microimaging, Inc., Thornwood N.Y.) and Leica SP-2 Confocal Microscope (Leica Microsystems, Inc.). Autofluorescence in tumor tissues was very low in all filters examined (green, red and UV). […]

[2] = tested on: HCT-116 p53 null cells; assay: Growth inhibition of siRNA-transfected p53 null HCT-116 cells, SYBR Green I DNA content; type: cell-based
Protocol: (§1) A549 cells (human lung cancer cell line; ATCC No. CCL-185), SK-MeI-5 cells (human melanoma cell line; ATCC No. HTB-70), MCF-7 cells (human adenocarcinoma cell line; ATCC No. HTB-22), HCT-116 cells (colorectal carcinoma; ATCC CCL-247) and HCT-116 p53 null cells (derived from ATCC No. CCL-247; Bunz et al., Science 282:1497-1501, 1998) were cultured in RPMI 1640 medium with 10% v/v heat-inactivated fetal calf serum (FCS). Cells were seeded at a density of 5×10^4 cells/cm^2 in multi-well tissue culture plates. Sequences of Stealth™ siRNA duplexes (Invitrogen) targeting human ribonucleotide reductase subunit 1 (SEQ ID NO: 22) and subunit 2 (SEQ ID NO; 38) are given in SEQ ID NO: 4830-4832 (DNA), and SEQ ID NO: 5136-5138 (RNA) for RRM1, and SEQ ID NO: 5306-5308 (DNA), and SEQ ID NO: 5303-5305 (RNA) for RRM2. siRNAs were transfected at different concentrations into cells using Lipofectamine™ RNAiMAX transfection reagent (Invitrogen). Non-specific siRNA (SEQ ID NO: 4804 and 4805 (DNA), and SEQ ID NO: 5301 and 5302 (RNA)) were used as controls. The cellular DNA content was measured using a SYBR Green I-based fluorometric assay at 24, 48, 72 and 96 hours after transfection (120 hours for the MCF-7 cells), as follows. At the indicated time points following reverse transfection, cells were harvested and frozen at −80° C. overnight. Cells were thawed and cell lysis buffer (phosphate-buffered saline (PBS) containing 1% Triton X-100, pH 7) and SYBR Green I (1:10^5 V/V; Invitrogen) was added to the wells and incubated overnight in the dark at 4° C.
(§2) The following day, cell lysates were mixed thoroughly, and DNA fluorescence was measured with a Wallac Victor^2 plate reader (Turku, Finland) set at an excitation frequency of 485 nm and measuring emission at 535 nm.
(§3) To determine the effect of the p53-status of cells on RRM1 and RRM2 knockdown, growth inhibition of wild type (wt) HCT-116 and p53 null HCT-116 cells by RRM1 and RRM2-targeted siRNA were determined. Cells were reverse transfected with 1.0 and 10 nM RRM1-3 (SEQ ID NO: 4832 (DNA), and SEQ ID NO: 5138 (RNA)), 1.0 and 10 nM RRM2-2 (SEQ ID NO: 5307 (DNA), and SEQ ID NO: 5304 (RNA)) or 10 nM control siRNA (SEQ ID NO: 4804 (DNA), and SEQ ID NO: 5301 (RNA)), and growth measured daily for up to 4 days post transfection.
(§4) siRNA-mediated RNAi was also determined on a panel of different cell lines. A549, SK-MeI-5, wt HCT-116, HCT-116−/−p53 and MCF-7 cells were transfected with 10 nM siRNAs targeting YBX-1 and growth inhibition determined as described above. The YBX1 siRNAs are given in SEQ ID NO: 4981 to 4985 (DNA) and SEQ ID NO: 5276-5280 (RNA). A non-specific siRNA (SEQ ID NO: 4804 (DNA) and SEQ ID NO: 5301 (RNA)) was used as control. Growth inhibition by the siRNAs, given in Table 14, was standardized against the inhibition obtained with the control siRNA.

[3] = tested on: A549 cells; assay: Growth inhibition of siRNA-transfected A549 cells, SYBR Green I DNA content; type: cell-based, human
How it was run: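 Growth read-out: cellular DNA quantified with SYBR Green I (485/535 nm) 96 h after transfection, cells frozen, thawed and lysed in PBS/1% Triton X-100, pH 7. Cells (A549, 5×10^3 cells/cm^2) received 10 nM siRNA by RNAiMAX; non-specific siRNA served as control; triplicate wells averaged.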

[4] = tested on: wt HCT-116 cells; assay: Growth inhibition of siRNA-transfected wt HCT-116 cells, SYBR Green I DNA content; type: cell-based
Protocol: as §1, §2, §3, §4
HCT-116 and A549 cells were transfected with 0.1, 1.0 and 10 nM siRNA targeting TYMS and DHFR (SEQ ID NO: 4833 to 4838 (DNA), and SEQ ID NO: 5139-5144 (RNA)) using Lipofectamine™ RNAiMAX and incubated for 96 h, in either normal fetal calf serum or serum dialyzed to remove low molecular weight molecules (cut-off 10 kDa). Growth of cells was measured by measuring the total DNA content per well using the SYBR Green assay as described above, and values are given as the percentage of the averaged control values. […] Inhibition increased with increasing siRNA concentration, which was not observed with a non-specific control siRNA. […]

[5] = tested on: target transcript mRNA in A549 cells; assay: Level of mRNA of target transcript in A549 cells by quantitative RT-PCR (Tables 12 and 13); type: cell-based, human; conditions: 24 h post-transfection
How it was run: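 Target mRNA was measured by SYBR Green quantitative RT-PCR using random-primed cDNA, normalised to HPRT and Lamin. Samples came from A549 cells 24 h post-transfection with 0.1, 1.0 or 10 nM siRNA.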

[6] = tested on: HCT-15 cells; assay: Effect of MDR1 knockdown on drug resistance of HCT-15 cells; type: cell-based; conditions: 10 nM siRNA; drug 72 h; compared with control siRNA
Protocol: HCT-15 cells, which express high endogenous levels of MDR1, were reverse transfected with MDR1-specific (SEQ ID NO: 4976 (DNA), and SEQ ID NO: 5271 (RNA)) or control siRNAs (SEQ ID NO: 4804 (DNA), and SEQ ID NO: 5301 (RNA)) at a final concentration of 10 nM. Lipofectamine-siRNA complexes were made by adding 0.3 μl Lipofectamine RNAiMAX in 10 μl RPMI to an equivalent volume of medium containing siRNA, such that the final siRNA concentration would be 10 nM. This mixture was incubated at room temperature for 20 minutes to allow complexes to form, after which time 1,500 HCT-15 cells in 100 μl RPMI supplemented with 10% FCS were added to the wells. […] Drugs used were Doxorubicin (Sigma, St. Louis Mo.), Paclitaxel (Invitrogen) and Etoposide (Sigma, St. Louis Mo.). At the conclusion of the assay, medium was removed and growth inhibition determined as described above.

[7] = tested on: SK-Mel-5 cells; assay: Growth inhibition of siRNA-transfected SK-Mel-5 cells, SYBR Green I DNA content; type: cell-based, human; conditions: 1 nM p53 siRNA with 1 nM YBX1 siRNA SEQ ID NO: 4982
Protocol: as §1, §2
siRNA-mediated inhibition of cancer cell growth using siRNA targeting the YBX1 gene (SEQ ID NO: 92) was determined as follows. SK-MeI-5 cells were cultured in RPMI 1640 medium with 10% v/v heat-inactivated fetal calf serum. Cells were cultured as described above and reverse transfected with 0.1, 1.0, 10 and 40 nM (final concentration) of a pool of YBX1-targeting siRNAs (SEQ ID NO: 4982 and 4983 (DNA), and SEQ ID NO: 5277 and 5278 (RNA); referred to as 994 and 995 in FIG. 19) or a non-specific control (SEQ ID NO: 4804 (DNA), and SEQ ID NO: 5301 (RNA); referred to as Stealth 81 ctrl in FIG. 19), and cell growth determined after 120 h by measuring DNA fluorescence with a Wallac Victor^2 plate reader (Turku, Finland) set at an excitation frequency of 485 nm and measuring emission at 535 nm. Growth inhibition by the siRNA pool was standardized against the inhibition obtained with the control siRNAs.
as §4

[8] = 1 nM p53 siRNA with 1 nM YBX1 siRNA SEQ ID NO: 4982

Substance: Alexa 555-labeled siRNA: Alexa 555-labeled control Stealth siRNA (Invitrogen) (chain 1 CCGCAACAACGCCATCTATGAGAAA; chain 2 CCGCAACAACGCCAUCUAUGAGAAA; Alexa 555 label, position not given here, Stealth siRNA, chemistry not given here; one strand in two spellings)
- cellular uptake of siRNA in tumor tissue (fluorescence) ([1]; 6 h after injection): red punctuations were seen in some tumor cells, indicative of uptake of siRNA
- intracellular localization of siRNA fluorescence ([1]; 6 h after injection, overlay with DAPI): located in the cytoplasm around the periphery of the nuclei
- cellular uptake of siRNA in tumor tissue (fluorescence) ([1]; 24 h after injection): also observed in the samples taken 24 h after injection, although in slightly lower number of cells

Substance: SEQ ID NO: 4832: Stealth siRNA targeting RRM1 (chain 1 ATTCAAAGATGTCTAAATGCCAAGG; chain 2 AUUCAAAGAUGUCUAAAUGCCAAGG; Stealth siRNA, chemical pattern not given here; one strand in two spellings)
- growth inhibition, p53 null HCT-116 ([2]; 1.0 and 10 nM siRNA, up to 4 days, compared with p53 wt): equally growth inhibitory
- Growth Inhibition in A549 cells ([3]; 10 nM siRNA, DNA content 96 hours after transfection): ++ (inhibits by at least 75%)
- duration of growth inhibition post-transfection, A549 ([3]; 1 and 10 nM siRNA, measured daily for up to ten days): at least 10 days
- growth inhibition, p53 wt HCT-116 ([4]; 1.0 and 10 nM siRNA, up to 4 days, compared with p53 null): equally growth inhibitory

Substance: SEQ ID NO: 4976: MDR1-specific siRNA (ABCB1) (chain 1 TTAGCTTCCAACCACGTGTAAATCC; chain 2 UUAGCUUCCAACCACGUGUAAAUCC; chemistry not given here; one strand in two spellings)
- Growth Inhibition in A549 cells by 10 nM siRNA ([3]; A549 cells, 10 nM siRNA, DNA content 96 hours after transfection, transporter gene targets): − (no growth inhibition)
- mRNA knockdown of transporter gene target transcript, 0.1 nM ([5]; 0.1 nM siRNA): − (<50% mRNA knockdown)
- mRNA knockdown of transporter gene target transcript, 1 nM ([5]; 1 nM siRNA): − (<50% mRNA knockdown)
- sensitivity to doxorubicin, HCT-15 [6]: more sensitive
- sensitivity to etoposide, HCT-15 [6]: more sensitive
- sensitivity to paclitaxel, HCT-15 [6]: more sensitive

Substance: SEQ ID NO: 5110: p53-targeting Stealth siRNA (chain 1 GCCAAGTCTGTGACTTGCACGTACT; chain 2 GCCAAGUCUGUGACUUGCACGUACU; Stealth siRNA, chemical pattern not given here; one strand in two spellings) [reference compound]
- effect of p53 siRNA co-transfection on YBX1 siRNA-mediated growth inhibition, HCT-116−/−p53 [2, 8]: only partial abrogation of growth inhibition
- effect of p53 siRNA co-transfection on YBX1 siRNA-mediated growth inhibition, A549 ([3]; 5 nM p53 siRNA with 5 nM YBX1 siRNA SEQ ID NO: 4982): only partial abrogation of growth inhibition
- effect of p53 siRNA co-transfection on YBX1 siRNA-mediated growth inhibition, SK-MeI-5 [7]: completely ablated growth inhibition
- effect of p53 siRNA co-transfection on YBX1 siRNA-mediated growth inhibition, wt HCT-116 [4, 8]: only partial abrogation of growth inhibition
